The results in this text go back to PubChem BioAssay (NCI).

Structures are written as SMILES.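 Compound exposure: 48 hours, 5 concentrations, 96-well plates. At the GI50, growth is halved. TGI denotes the concentration required for complete inhibition of growth.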

Among the test systems are SK-OV-3 ovarian; RPMI-8226 leukemia; NCI-H522 lung; SN12C renal; RXF 393 renal; OVCAR-4 ovarian; HCC-2998 colon; ACHN renal; A498 renal; KM12 colon.
Holding throughout (assay): growth of human tumour cells (NCI), 48 h

With `Fc1ccc(/C=N/n2c(-c3ccc(F)c(Cl)c3)nn(CNc3ccccc3C(F)(F)F)c2=S)cc1`, the GI50 is above 100 µM in the assay with SK-OV-3 ovarian; 38.6 µM in the assay on RPMI-8226 leukemia; 24.4 µM with NCI-H522 lung; 39.3 µM in the assay on SN12C renal; 59.4 µM in the assay with RXF 393 renal; 57.4 µM in the assay on OVCAR-4 ovarian. Moreover, the GI50 in the assay on HCC-2998 colon was 89.7 µM; in the assay on ACHN renal it was 81.1 µM; in the assay with A498 renal it was 12.5 µM; in the assay with KM12 colon it was 29.3 µM. The TGI in the assay with SK-OV-3 ovarian is above 100 µM; in the assay with RPMI-8226 leukemia it was above 100 µM; with NCI-H522 lung it was 76.3 µM; in the assay on SN12C renal it was above 100 µM; in the assay on RXF 393 renal, above 100 µM; in the assay on OVCAR-4 ovarian, above 100 µM. The TGI was above 100 µM with HCC-2998 colon, above 100 µM in the assay on ACHN renal, 63.7 µM in the assay on A498 renal and above 100 µM in the assay with KM12 colon.

For `Cc1ccc2c(C3Cc4ccccc4N3C(=O)/C=C\C(=O)O)c(C)[nH]c2c1` (centres undefined), the TGI is above 100 µM with SK-OV-3 ovarian; 79.7 µM with RPMI-8226 leukemia; 48.6 µM with NCI-H522 lung; above 100 µM with SN12C renal; 93.8 µM in the assay on RXF 393 renal; above 100 µM with OVCAR-4 ovarian. Also, the TGI with HCC-2998 colon, in the assay with ACHN renal, with A498 renal and with KM12 colon was above 100 µM throughout.

Take `C[C@@H]1CN(Cc2ccc(F)cc2)[C@@H](C)CN1C(=O)c1cc2c(C(=O)C(=O)N(C)C)cn(C)c2cc1Cl`: the GI50 in the assay with SK-OV-3 ovarian was 22.7 µM; in the assay with RPMI-8226 leukemia it was 16.7 µM; with NCI-H522 lung it was 15.8 µM; with SN12C renal, 15.7 µM; in the assay on RXF 393 renal, 12.3 µM; in the assay on OVCAR-4 ovarian, 22.1 µM. In addition, the GI50 in the assay on HCC-2998 colon was 17.3 µM; with ACHN renal it was 16.6 µM; in the assay on A498 renal it was 9.9 µM; in the assay on KM12 colon, 17.3 µM. The TGI with SK-OV-3 ovarian was above 79.6 µM; with RPMI-8226 leukemia it was 51.9 µM; in the assay on NCI-H522 lung, 43.4 µM; in the assay with SN12C renal it was 43.5 µM; in the assay on RXF 393 renal, 27.6 µM; in the assay with OVCAR-4 ovarian, above 90.3 µM. For the same molecule, the TGI with HCC-2998 colon was 34.4 µM; with ACHN renal it was above 54.6 µM; with A498 renal, 43.8 µM; in the assay with KM12 colon, 37.4 µM.

Consider `CNCCCNCCCCNCCCN1C(=O)c2ccc3c4c(ccc(c24)C1=O)C(=O)N(CCCNCc1ccccc1OC)C3=O`, for which the GI50 in the assay with SK-OV-3 ovarian is 6.19 µM; in the assay on RPMI-8226 leukemia, 3 µM; in the assay on NCI-H522 lung, 5.62 µM; with SN12C renal it was 2.95 µM; in the assay with RXF 393 renal, 3.82 µM; in the assay with OVCAR-4 ovarian, 1.7 µM. Besides, the GI50 in the assay with HCC-2998 colon was 3.12 µM; in the assay on ACHN renal, 2.86 µM; in the assay with A498 renal it was 1.78 µM; with KM12 colon it was 2.75 µM. Further, the TGI is 61.5 µM in the assay with SK-OV-3 ovarian; 22.8 µM with RPMI-8226 leukemia; 27.2 µM in the assay on NCI-H522 lung; 20.5 µM in the assay on SN12C renal; 19.3 µM with RXF 393 renal; 9.19 µM in the assay on OVCAR-4 ovarian. Also, the TGI in the assay on HCC-2998 colon was determined as 20.2 µM; in the assay with ACHN renal, 30.1 µM; with A498 renal, 13.3 µM; in the assay on KM12 colon it was 17.4 µM.

`N#CC(=C1C=CC(=NO)C=C1)c1ccc(Cl)cc1`: the TGI with SK-OV-3 ovarian worked out at 48.9 µM; in the assay with RPMI-8226 leukemia, 15.3 µM; with NCI-H522 lung, 7.66 µM; with SN12C renal, 58.7 µM; in the assay on RXF 393 renal it was 36.5 µM; in the assay with OVCAR-4 ovarian it was 60.4 µM. The TGI is 33.1 µM in the assay on HCC-2998 colon, 24.9 µM in the assay with ACHN renal, above 100 µM with A498 renal and 3.98 µM with KM12 colon.

Consider `c1cnn2ncc(-c3ccnc(NCCCN4CCOCC4)n3)c2c1`, for which the GI50 is 8.34 µM with SK-OV-3 ovarian; 6.7 µM in the assay on RPMI-8226 leukemia; 10.6 µM in the assay with NCI-H522 lung; 8.2 µM in the assay on SN12C renal; 3.34 µM in the assay with RXF 393 renal; 11 µM with OVCAR-4 ovarian. Besides, the GI50 in the assay on HCC-2998 colon was 9.29 µM; with ACHN renal it was 6.08 µM; in the assay with A498 renal, 4.18 µM; in the assay on KM12 colon it was 6.85 µM. Besides, the TGI was above 25 µM in the assay on SK-OV-3 ovarian; above 25 µM with RPMI-8226 leukemia; above 25 µM in the assay with NCI-H522 lung; above 25 µM in the assay with SN12C renal; 7.78 µM in the assay on RXF 393 renal; above 25 µM with OVCAR-4 ovarian. For the same molecule, the TGI in the assay on HCC-2998 colon is above 25 µM; in the assay with ACHN renal, above 25 µM; in the assay with A498 renal, 12.2 µM; in the assay with KM12 colon, above 21.4 µM.

As to `OCC1OC(n2cnc3c(N/N=C\c4ccccn4)ncnc32)C(O)C1O` (centres undefined), the GI50 was 0.239 µM with SK-OV-3 ovarian; 0.736 µM in the assay on RPMI-8226 leukemia; 0.182 µM in the assay with NCI-H522 lung; 0.107 µM in the assay with SN12C renal; 0.275 µM in the assay on RXF 393 renal; 0.115 µM in the assay on OVCAR-4 ovarian. Also, the GI50 in the assay with HCC-2998 colon was 0.277 µM; with ACHN renal, 0.2 µM; in the assay with A498 renal, 0.762 µM; with KM12 colon it was 0.434 µM. In addition, the TGI in the assay on SK-OV-3 ovarian is 2.97 µM; in the assay on RPMI-8226 leukemia, above 25.3 µM; with NCI-H522 lung it was above 100 µM; in the assay with SN12C renal, 7.48 µM; in the assay with RXF 393 renal, 2.45 µM; in the assay with HCC-2998 colon, above 100 µM. Also, the TGI with ACHN renal is 1.78 µM; in the assay on A498 renal, above 100 µM; with KM12 colon, above 100 µM.

For `O=C1c2cccnc2C(=O)c2c1c(C(=O)NCCCN1CCCCC1)c1ccccn21`, the GI50 in the assay on SK-OV-3 ovarian was 2.06 µM; in the assay on RPMI-8226 leukemia it was 3.43 µM; in the assay on NCI-H522 lung, 1.08 µM; in the assay with SN12C renal, 0.472 µM; in the assay with RXF 393 renal, 1.28 µM; in the assay on OVCAR-4 ovarian, 0.31 µM. For the same molecule, the GI50 is 0.529 µM with HCC-2998 colon, 0.464 µM in the assay on ACHN renal, 1.54 µM with A498 renal and 0.99 µM in the assay on KM12 colon. In addition, the TGI in the assay on SK-OV-3 ovarian was 6.7 µM; with RPMI-8226 leukemia, above 100 µM; in the assay on NCI-H522 lung it was 3.45 µM; in the assay on SN12C renal, 1.84 µM; with RXF 393 renal it was 3.4 µM; in the assay on OVCAR-4 ovarian, 1.32 µM. Further, the TGI is 2.04 µM in the assay on HCC-2998 colon, 2.84 µM in the assay on ACHN renal, 3.23 µM in the assay with A498 renal and 10.1 µM in the assay on KM12 colon.
